The target in this assay is T1, HRP Type VIA (Armoracia rusticana, UniProt P00433).
T1 sequence (P00433 31-338): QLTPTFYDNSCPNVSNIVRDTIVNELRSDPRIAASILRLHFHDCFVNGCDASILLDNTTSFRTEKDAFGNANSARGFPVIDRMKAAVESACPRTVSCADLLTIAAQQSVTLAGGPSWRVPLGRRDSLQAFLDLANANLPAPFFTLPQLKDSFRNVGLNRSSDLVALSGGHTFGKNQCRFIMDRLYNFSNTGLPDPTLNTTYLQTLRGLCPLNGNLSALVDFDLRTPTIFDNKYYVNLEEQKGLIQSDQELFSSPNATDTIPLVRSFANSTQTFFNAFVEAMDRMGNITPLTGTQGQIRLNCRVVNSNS
The conditions noted are these: for (d) Signal: Background: ratio (control = with no enhancer): control value in brackets not reported.

Like-named read-outs stand apart in the source and are kept apart here.

Regarding `c1ccc2c(OB(Oc3cccc4ccccc34)c3cccc4ccccc34)cccc2c1` [Compound 1047, di-(1-naphthoxy)-l-naphthylborane], the “(a) Decrease in background (without HRP with test cpd.)” value is “Y” (0.01 mg/ml, 10µl test compound); “Y” (0.1 mg/ml, 10µl test compound); “Y” (1 mg/ml, 10µl test compound). The “(b) Increase in signal (with HRP, with test cpd.)” value (shortened to “(b) Increase in signal”) was “N” (0.01 mg/ml, 10µl test compound); “N” (0.1 mg/ml, 10µl test compound); “N” (1 mg/ml, 10µl test compound). Also, the “(c) Increase in signal: background ratio” value is “N (N = no)” (0.01 mg/ml, 10µl test compound); “N (N = no)” (0.1 mg/ml, 10µl test compound); “N (N = no)” (1 mg/ml, 10µl test compound).

For the molecule `OB(O)c1cccc(Cl)c1` [Compound 1028, 3-chlorophenylboronic acid], the “(a) Decrease in background (without HRP with test cpd.)” value is given as “Y”; the “(b) Increase in signal” value is “N and Y”.

Consider `CSCc1ccccc1B(O)O` [Compound 1050, 2-(methylthiomethyl)phenylboronic acid], for which, where the note is “0.01 mg/ml, 10µl test compound”, the “(a) Decrease in background (without HRP with test cpd.)” value is given as “Y”; the “(b) Increase in signal” value is “N”; the “(c) Increase in signal: background ratio” value was “N (N = no)”. Besides, for the setting “0.1 mg/ml, 10µl test compound”, the “(a) Decrease in background (without HRP with test cpd.)” value was “Y”; the “(b) Increase in signal” value was “N”; the “(c) Increase in signal: background ratio” value is given as “N (N = no)”; the “(d) Signal: Background: ratio (control = with no enhancer)” value is 3.3 (2.9). For the same molecule, under “1 mg/ml, 10µl test compound”, the “(a) Decrease in background (without HRP with test cpd.)” value is listed as “Y”; the “(b) Increase in signal” value is listed as “N”; the “(c) Increase in signal: background ratio” value was “N (N = no)”.

As to “methyl-(2-tolylboronic acid)sulfoxide [Compound 1051]”, under “0.01 mg/ml, 10µl test compound”, the “(a) Decrease in background (without HRP with test cpd.)” value is “Y”; the “(b) Increase in signal” value is recorded as “N”; the “(c) Increase in signal: background ratio” value is recorded as “N (N = no)”. Under “0.1 mg/ml, 10µl test compound”, the “(a) Decrease in background (without HRP with test cpd.)” value is “Y”; the “(b) Increase in signal” value is “N”; the “(c) Increase in signal: background ratio” value was “N (N = no)”. Where the note is “1 mg/ml, 10µl test compound”, the “(a) Decrease in background (without HRP with test cpd.)” value was “Y”; the “(b) Increase in signal” value is “N”; the “(c) Increase in signal: background ratio” value is “N (N = no)”.

For the molecule `O=C(O)c1ccc(N=Nc2ccc(O)c(B(O)O)c2)cc1` [Compound 1018, 4-(3'-borono-4'-hydroxyphenylazo)benzoic acid], under “0.01 mg/ml, 10µl test compound”, the “(a) Decrease in background (without HRP with test cpd.)” value is “Y”; the “(b) Increase in signal” value is given as “N”; the “(c) Increase in signal: background ratio” value is given as “Y (Column (c) shows whether there was an increase in the signal:background ratio by over 25% of the control value (Y = yes)”; the “(d) Signal: Background: ratio (control = with no enhancer)” value was 5.0. For the same molecule, where the note is “0.1 mg/ml, 10µl test compound”, the “(a) Decrease in background (without HRP with test cpd.)” value was “Y”; the “(b) Increase in signal” value is on record as “N”; the “(c) Increase in signal: background ratio” value is reported as “Y (Column (c) shows whether there was an increase in the signal:background ratio by over 25% of the control value (Y = yes)”; the “(d) Signal: Background: ratio (control = with no enhancer)” value is 24.5. Further, for the setting “1 mg/ml, 10µl test compound”, the “(a) Decrease in background (without HRP with test cpd.)” value is given as “Y”; the “(b) Increase in signal” value is “N”; the “(c) Increase in signal: background ratio” value is on record as “Y (Column (c) shows whether there was an increase in the signal:background ratio by over 25% of the control value (Y = yes)”; the “(d) Signal: Background: ratio (control = with no enhancer)” value was 4.2 (1.9).

For the molecule `OB(O)c1ccc(B(O)O)cc1` [Compound 1035, 1,4-phenyldiboronic acid], for the setting “0.01 mg/ml, 10µl test compound”, the “(a) Decrease in background (without HRP with test cpd.)” value is on record as “Y”; the “(b) Increase in signal” value was “N”; the “(c) Increase in signal: background ratio” value was “N (N = no)”; the “(d) Signal: Background: ratio (control = with no enhancer)” value is given as 2.1 (2.0). In addition, for the setting “0.1 mg/ml, 10µl test compound”, the “(a) Decrease in background (without HRP with test cpd.)” value is reported as “Y”; the “(b) Increase in signal” value was “N”; the “(c) Increase in signal: background ratio” value is recorded as “N (N = no)”. Further, under “1 mg/ml, 10µl test compound”, the “(a) Decrease in background (without HRP with test cpd.)” value was “Y”; the “(b) Increase in signal” value is reported as “N”; the “(c) Increase in signal: background ratio” value is reported as “N (N = no)”.

Take `OB(O)c1ccc2cc(O)ccc2c1` [Compound 1006, 6-hydroxy-2-naphthaleneboronic acid]: for the setting “0.01 mg/ml, 10µl test compound”, the “(a) Decrease in background (without HRP with test cpd.)” value was “Y”; the “(b) Increase in signal” value is given as “N”; the “(c) Increase in signal: background ratio” value is “Y (Column (c) shows whether there was an increase in the signal:background ratio by over 25% of the control value (Y = yes)”; the “(d) Signal: Background: ratio (control = with no enhancer)” value is given as 5.8. Further, for the setting “0.1 mg/ml, 10µl test compound”, the “(a) Decrease in background (without HRP with test cpd.)” value is on record as “Y”; the “(b) Increase in signal” value is “N”; the “(c) Increase in signal: background ratio” value is “N (N = no)”; the “(d) Signal: Background: ratio (control = with no enhancer)” value turned out to be 1.5. For the same molecule, where the note is “1 mg/ml, 10µl test compound”, the “(a) Decrease in background (without HRP with test cpd.)” value is on record as “Y”; the “(b) Increase in signal” value is given as “N”; the “(c) Increase in signal: background ratio” value is on record as “N (N = no)”; the “(d) Signal: Background: ratio (control = with no enhancer)” value is reported as 0.3 (1.8).

As to `O=[N+]([O-])c1cc(B(O)O)ccc1Cl` [Compound 1021, 4-chloro-3-nitrophenylboronic acid], under “0.01 mg/ml, 10µl test compound”, the “(a) Decrease in background (without HRP with test cpd.)” value was “Y”; the “(b) Increase in signal” value is “Y”; the “(c) Increase in signal: background ratio” value is listed as “Y (Column (c) shows whether there was an increase in the signal:background ratio by over 25% of the control value (Y = yes)”; the “(d) Signal: Background: ratio (control = with no enhancer)” value is reported as 2.3 (1.8). For the setting “0.1 mg/ml, 10µl test compound”, the “(a) Decrease in background (without HRP with test cpd.)” value is “Y”; the “(b) Increase in signal” value is listed as “Y”; the “(c) Increase in signal: background ratio” value is recorded as “Y (Column (c) shows whether there was an increase in the signal:background ratio by over 25% of the control value (Y = yes)”; the “(d) Signal: Background: ratio (control = with no enhancer)” value is listed as 44.5 (2.8). In addition, for the setting “1 mg/ml, 10µl test compound”, the “(a) Decrease in background (without HRP with test cpd.)” value was “Y”; the “(b) Increase in signal” value is given as “Y”; the “(c) Increase in signal: background ratio” value was “Y (Column (c) shows whether there was an increase in the signal:background ratio by over 25% of the control value (Y = yes)”; the “(d) Signal: Background: ratio (control = with no enhancer)” value is listed as 247.9 (4.5).

On to bis(catechol)borate [Compound 1013], for which the “(a) Decrease in background (without HRP with test cpd.)” value was “Y” and the “(b) Increase in signal” value is reported as “N”.

As for `OB(O)c1ccccc1-c1ccccc1` [Compound 1004, 2-biphenylboronic acid], under “0.01 mg/ml, 10µl test compound”, the “(a) Decrease in background (without HRP with test cpd.)” value is listed as “Y”; the “(b) Increase in signal” value is reported as “N”; the “(c) Increase in signal: background ratio” value is listed as “N (N = no)”; the “(d) Signal: Background: ratio (control = with no enhancer)” value worked out at 1.9. Further, for the setting “0.1 mg/ml, 10µl test compound”, the “(a) Decrease in background (without HRP with test cpd.)” value is “Y”; the “(b) Increase in signal” value is listed as “N”; the “(c) Increase in signal: background ratio” value is “N (N = no)”; the “(d) Signal: Background: ratio (control = with no enhancer)” value was 2.2. Also, under “1 mg/ml, 10µl test compound”, the “(a) Decrease in background (without HRP with test cpd.)” value is listed as “Y”; the “(b) Increase in signal” value is given as “N”; the “(c) Increase in signal: background ratio” value was “N (N = no)”; the “(d) Signal: Background: ratio (control = with no enhancer)” value is 1.7 (2.3).

Take “dimethylphenylboronic acid [Compound 1036]”: for the setting “0.01 mg/ml, 10µl test compound”, the “(a) Decrease in background (without HRP with test cpd.)” value is given as “Y”; the “(b) Increase in signal” value is recorded as “N”; the “(c) Increase in signal: background ratio” value is “Y (Column (c) shows whether there was an increase in the signal:background ratio by over 25% of the control value (Y = yes)”; the “(d) Signal: Background: ratio (control = with no enhancer)” value is given as 2.6 (2.0). For the same molecule, under “0.1 mg/ml, 10µl test compound”, the “(a) Decrease in background (without HRP with test cpd.)” value is recorded as “Y”; the “(b) Increase in signal” value is “N”; the “(c) Increase in signal: background ratio” value was “Y (Column (c) shows whether there was an increase in the signal:background ratio by over 25% of the control value (Y = yes)”; the “(d) Signal: Background: ratio (control = with no enhancer)” value is given as 7.6 (2.9). Moreover, for the setting “1 mg/ml, 10µl test compound”, the “(a) Decrease in background (without HRP with test cpd.)” value is recorded as “Y”; the “(b) Increase in signal” value is “N”; the “(c) Increase in signal: background ratio” value is given as “N (N = no)”.

Consider `CCCCOB(OCCCC)c1ccc(-c2ccc(Br)cc2)cc1` [Compound 1038, 4-(4'-bromophenyl)phenyl-di-n-butoxyborane], for which, where the note is “0.01 mg/ml, 10µl test compound”, the “(a) Decrease in background (without HRP with test cpd.)” value was “Y Y”; the “(b) Increase in signal” value is recorded as “Y Y”; the “(c) Increase in signal: background ratio” value is recorded as “Y Y (Column (c) shows whether there was an increase in the signal:background ratio by over 25% of the control value (Y = yes)”; the “(d) Signal: Background: ratio (control = with no enhancer)” value is 442.2. Further, where the note is “0.1 mg/ml, 10µl test compound”, the “(a) Decrease in background (without HRP with test cpd.)” value is recorded as “Y Y”; the “(b) Increase in signal” value was “Y Y”; the “(c) Increase in signal: background ratio” value is “Y Y (Column (c) shows whether there was an increase in the signal:background ratio by over 25% of the control value (Y = yes)”; the “(d) Signal: Background: ratio (control = with no enhancer)” value came out at 2118.5. Further, for the setting “1 mg/ml, 10µl test compound”, the “(a) Decrease in background (without HRP with test cpd.)” value is on record as “Y”; the “(b) Increase in signal” value is listed as “Y”; the “(c) Increase in signal: background ratio” value is reported as “Y (Column (c) shows whether there was an increase in the signal:background ratio by over 25% of the control value (Y = yes)”; the “(d) Signal: Background: ratio (control = with no enhancer)” value is 903.8 (4.5).

The values are drawn from patent publication EP0626016B1, “[…] […]” (BRITISH TECHNOLOGY GROUP LIMITED, priority 1992, dated 1993).
